# From patent US10781171B2, “Substituted pyrrolidines as G-protein coupled receptor 43 agonists” (Epics Therapeutics, priority 2009, dated 2020)
# System: ob/ob mice
# Experiment: Oral glucose tolerance test (OGTT) in ob/ob mice
# Type: in vivo, mouse
# Details: blood glucose AUC -15 to 120 min in OGTT, 50 mg/kg bi-daily for 28 days
# Procedure: Ob/ob or obese mice are leptin-deficient mice that eat excessively and become profoundly obese, hyperinsulinemic and hyperglycemic. It is an animal model of type II diabetes. Such model can be used for oral glucose tolerance tests (OGTTs). A total of sixteen (16) male ob/ob mice (6 weeks of age) were obtained from Harlan. Upon arrival to the animal unit, mice were housed 4 per cage in rodent cages mounted with feeders containing regular chow. The mice were put in a 12/12h light-dark cycle (light from 0600-1800 h) with controlled temperature conditions (22-24° C.). Fed blood glucose and body-weight was measured on day −2 in the morning between 08:00 AM and 09:00 AM. Animals were randomized into 2 groups according to fed glucose levels (on day −2). […]
# Day 1 is the first day of dosing. […] At −15 min, blood glucose was measured (using a glucose analyzer) and animals were dosed with compounds of the invention or vehicle. At time point 0, blood glucose was measured again and glucose was administered by oral gavage (1 g/kg glucose). The blood glucose was then measured at time points 15, 30, 45, 60 and 120 minutes. […] The percentages of AUC inhibition induced by compounds of the invention were calculated as follows: % of AUC inhibition: [1-(AUC compound/AUC vehicule)]*100.
compound,measurement,value
"COc1ccccc1-c1ccc(C(=O)N2[C@@H](c3ccccc3Cl)CC[C@H]2C(=O)O)cc1 [Compound 1, (2S,5R)-5-(2-chlorophenyl)-1-(2′-methoxy-[1,1′-biphenyl]-4-carbonyl)pyrrolidine-2-carboxylic acid]",% of AUC inhibition,40%
